The text below walks through data of patent US5300491A, “Treatment of protozoal infection” (priority 1992, dated 1994).

Data set [1] deals with Trichomonas vaginalis. The data set can be described thus: Trichomonas vaginalis assay of other divalent metal salts of bacitracin (MIC). In kind it is cell-based. The method, then:
(§1) All isolates were treated with either bacitracin or zinc bacitracin.
(§2) Prior to being diluted with the medium, the bacitracins were initially solubilized in water to 250 mg/ml. The zinc salt was solubilized in acidified water (60 μl HC1/ml). Duplicate plates of each isolate were prepared. one set of plates was exposed to an aerobic environment; and, the second set was exposed to an anaerobic environment. An Oxoid HP 11 anaerobic gas chamber and BR 38 gas generating kit were used to produce the anaerobic environment.
The procedure of Example IV was repeated, substituting bacitracin salts of the following metals for zinc bacitracin: nickel, cadmium, cobalt, manganese, copper and iron. The MLCs of the bacitracin salts were out of range. However, the MICs indicate that, with the exception of ferrous bacitracin, complexation with a divalent metal salt enhanced the activity of bacitracin.

Data set [2] has as its system T. foetus. Conditions: cited from earlier work; for side effects: in vivo.
Data set [3] deals with Trichomonas vaginalis. Description: Trichomonas vaginalis assay (MLC, aerobic and anaerobic). Type of data set: cell-based. The method, then: as §1, §2
Data set [4] relates to Tritrichomonas gallinae. The data set can be described thus: Tritrichomonas gallinae assay (MLC). In kind it is cell-based. The conditions noted are these: isolate GH85; anaerobic. Here is the method: A single T. gallinae isolate was collected and treated with bacitracin or zinc bacitracin in accordance with the procedure of Example IV. Duplicate plates of the isolate were prepared. one plate was exposed to an aerobic environment. The second plate was exposed to an anaerobic environment.

The subject of data set [5] is E. histolvtica. The conditions noted are these: fifty South African patients; 2.4 g daily for 5 days; cited from earlier work.
Data set [6] deals with Giardia lamblia. In kind it is cell-based. Conditions: Portland isolate; anaerobic; 24 hours; two lines of values. The method, then: A Portland isolate of G. lamblia was treated with bacitracin and zinc bacitracin according to the procedure of Example IV. An Oxoid HP 11 anaerobic gas chamber and BR 38 gas generating kit were used to produce an anaerobic environment. […] The parasites were incubated in the presence of the treating reagent for 2 4 hours. The viability of the parasites was based on morphology and motility.

Values after ≈ are worked out from the molar mass of the structure shown. Values joined by “and” are separate entries in the source; they are usually repeats but may differ in a detail not shown here. Equal entries are not always repeated. Where two headings read alike, the source gives them in different places.

Consider Ferrous Bacitracin, for which the MIC in data set [1] (T. vaginalis isolate 1910) and in data set [1] (T. vaginalis isolate UCH1) was above 10000 µg/mL each time.
Turning to Manganese Bacitracin, the MIC came out at 1260 µg/mL in data set [1] (T. vaginalis isolate 1910) and 150 µg/mL in data set [1] (T. vaginalis isolate UCH1).
On the same counts, the results for Copper Bacitracin are 1250 µg/mL and 2500 µg/mL.
On to `Cc1ncc([N+](=O)[O-])n1C` [dimetridazole], for which the side effects result in data set [2] (iv) is “respiratory difficulty, ataxia and lung collapse”; in data set [2] (po), “rumen stasis and anorexia”. Further, the effectiveness entry in data set [2] (multiple oral doses) and in data set [2] (single intravenous administration) was “moderately effective” throughout.
Regarding Cobalt Bacitracin, the MIC in data set [1] (T. vaginalis isolate 1910) and in data set [1] (T. vaginalis isolate UCH1) was 1250 µg/mL throughout.
As for `Cc1ncc([N+](=O)[O-])n1CCO` [Metronidazole], the MLC was 40 µg/mL (≈ 234 µM) in data set [3] (isolate 1031, metronidazole-sensitive, aerobic); 4 µg/mL (≈ 23.4 µM) in data set [3] (isolate 1031, metronidazole-sensitive, anaerobic); 20 µg/mL (≈ 117 µM) in data set [3] (isolate 1043, metronidazole-sensitive, aerobic); below 1 µg/mL in data set [3] (isolate 1043, metronidazole-sensitive, anaerobic); below 10 µg/mL in data set [3] (isolate 1044, metronidazole-sensitive, aerobic); below 1 µg/mL in data set [3] (isolate 1044, metronidazole-sensitive, anaerobic). Moreover, the MLC is below 1 µg/mL in data set [3] (isolate 1064, metronidazole-sensitive, anaerobic); below 10 µg/mL in data set [3] (isolate 1065, metronidazole-sensitive, aerobic); below 1 µg/mL in data set [3] (isolate 1065, metronidazole-sensitive, anaerobic); 40 µg/mL (≈ 234 µM) in data set [3] (isolate 1165, metronidazole-sensitive, aerobic); below 1 µg/mL in data set [3] (isolate 1165, metronidazole-sensitive, anaerobic); 40 µg/mL (≈ 234 µM) in data set [3] (isolate 1910, metronidazole-sensitive, aerobic). Further, the MLC in data set [3] (isolate 1910, metronidazole-sensitive, anaerobic) was 2 µg/mL (≈ 11.7 µM); in data set [3] (isolate 6950, metronidazole-sensitive, aerobic), 20 µg/mL (≈ 117 µM); in data set [3] (isolate 6950, metronidazole-sensitive, anaerobic) it was 2 µg/mL (≈ 11.7 µM); in data set [3] (isolate 89532.2, metronidazole-insensitive, aerobic), 200 µg/mL (≈ 1170 µM); in data set [3] (isolate 89532.2, metronidazole-insensitive, anaerobic), 2 µg/mL (≈ 11.7 µM); in data set [3] (isolate 90576, metronidazole-insensitive, aerobic), 80 µg/mL (≈ 467 µM). The MLC came to 2 µg/mL (≈ 11.7 µM) in data set [3] (isolate 90576, metronidazole-insensitive, anaerobic); 200 µg/mL (≈ 1170 µM) in data set [3] (isolate CDC85, metronidazole-insensitive, aerobic); 20 µg/mL (≈ 117 µM) in data set [3] (isolate CDC85, metronidazole-insensitive, anaerobic); 200 µg/mL (≈ 1170 µM) in data set [3] (isolate IR78, metronidazole-insensitive, aerobic); 4 µg/mL (≈ 23.4 µM) in data set [3] (isolate IR78, metronidazole-insensitive, anaerobic); 60 µg/mL (≈ 351 µM) in data set [3] (isolate PHLS289, metronidazole-insensitive, aerobic). Further, the MLC is 8 µg/mL (≈ 46.7 µM) in data set [3] (isolate PHLS289, metronidazole-insensitive, anaerobic); 60 µg/mL (≈ 351 µM) in data set [3] (isolate STH-1, metronidazole-insensitive, aerobic); 8 µg/mL (≈ 46.7 µM) in data set [3] (isolate STH-1, metronidazole-insensitive, anaerobic); 40 µg/mL (≈ 234 µM) in data set [3] (isolate UCH-1, metronidazole-sensitive, aerobic); 4 µg/mL (≈ 23.4 µM) in data set [3] (isolate UCH-1, metronidazole-sensitive, anaerobic); below 10 µg/mL in data set [3] (isolate UCH-2, metronidazole-sensitive, aerobic). The MLC in data set [3] (isolate UCH-2, metronidazole-sensitive, anaerobic) was 2 µg/mL (≈ 11.7 µM); in data set [3] (isolate UCH-M1, metronidazole-sensitive, aerobic), 20 µg/mL (≈ 117 µM); in data set [3] (isolate UCH-M1, metronidazole-sensitive, anaerobic) it was 4 µg/mL (≈ 23.4 µM); in data set [3] (isolate UOB-1, metronidazole-sensitive, aerobic), 20 µg/mL (≈ 117 µM); in data set [3] (isolate UOB-1, metronidazole-sensitive, anaerobic), below 1 µg/mL; in data set [4] it was 2 µg/mL (≈ 11.7 µM). Besides, the “treatment failure with persistent disease” value in data set [5] is given as 55%. In addition, the “MLC (first of the two columns per drug)” value in data set [6] is below 1 µg/mL. Also, the “MLC (second of the two columns per drug)” value in data set [6] is 2 µg/mL and < 1 µg/mL.
Take Nickel Bacitracin: the figures for the MIC in data set [1] (T. vaginalis isolate 1910) and in data set [1] (T. vaginalis isolate UCH1) were 2500 µg/mL and 1250 µg/mL, respectively.
On the same counts, the results for Cadmium Bacitracin are 150 µg/mL and 310 µg/mL.
